Assay results reported in BindingDB's records for doi:10.1016/j.ejmech.2018.08.069 (Kanazawa University, 2018).
pIC50: −log10 of the molar value.

Assay: Antagonist activity at AR in human LNCAP cells assessed as reduction in DHT-induced cell growth treated for every 2 days for 4 days by hemocytometry
CC(C)Oc1ccccc1/C=C/C(=O)c1cc(Br)ccc1O showed a pIC50 of 5.04.
Molecule O=C1CC(c2ccccc2O)Oc2ccccc21 (stereo not given) [2-(2-Hydroxy-phenyl)-chroman-4-one] has a pIC50 of 5.19.
Work on O=c1cc(-c2ccccc2O)oc2ccccc12 [2-(2-Hydroxyphenyl)-4H-chromen-4-one (3d)] yielded a pIC50 of under 5.00.
For O=C(/C=C/c1ccccc1O)c1cc(Cl)ccc1O, the pIC50 was 5.43.
Molecule COc1ccc(O)c(C(=O)/C=C/c2ccccc2OC)c1 has a pIC50 of under 5.00.
